In patent US20260028365A1 (BIOGEN MA INC., priority 2022, published 2026):
pIC50: −log10 of the molar value.

Legend:
JAK1 = JAK1 (Homo sapiens (Human), UniProt P23458); assay: pSTAT3 Cell Assay (MSD, TF1 cells); type: cell-based; details: IL-6 stimulation, MSD
How it was run: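 IC50 values reflect 4-parameter logistic fits of normalized pSTAT3 signal, measured by MSD in lysed TF1 cells. Cells were serum-starved and treated with compound for 1 h (top concentration 10 μM) before a 15 min IL-6 challenge.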

JAK2 = JAK2 (Homo sapiens (Human), UniProt O60674); assay: pSTAT5 Cell Assay (MSD, TF1 cells); type: cell-based; details: IL-3 stimulation, MSD
How it was run: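 Serum-starved TF1 cells were pretreated with compound for 1 h (10-point four-fold series from 10 μM), then stimulated with 30 ng/mL IL-3 for 15 min. pSTAT5 in lysates was measured by MSD immunoassay. IC50 came from a 4-parameter logistic fit.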

JH2 domain of human Tyk2 = JH2 domain of human Tyk2 (Homo sapiens (Human), UniProt P29597); assay: JH2 Biochemical Assay (TR-FRET probe displacement); type: binding; details: TR-FRET probe displacement, JH2 domain of human Tyk2
Tyk2 = Tyk2 (Homo sapiens (Human), UniProt P29597); assay: pSTAT4 Cell Assay (MSD, NK92 cells); type: cell-based; details: MSD
Sequence of Tyk2 (P29597 whole entry): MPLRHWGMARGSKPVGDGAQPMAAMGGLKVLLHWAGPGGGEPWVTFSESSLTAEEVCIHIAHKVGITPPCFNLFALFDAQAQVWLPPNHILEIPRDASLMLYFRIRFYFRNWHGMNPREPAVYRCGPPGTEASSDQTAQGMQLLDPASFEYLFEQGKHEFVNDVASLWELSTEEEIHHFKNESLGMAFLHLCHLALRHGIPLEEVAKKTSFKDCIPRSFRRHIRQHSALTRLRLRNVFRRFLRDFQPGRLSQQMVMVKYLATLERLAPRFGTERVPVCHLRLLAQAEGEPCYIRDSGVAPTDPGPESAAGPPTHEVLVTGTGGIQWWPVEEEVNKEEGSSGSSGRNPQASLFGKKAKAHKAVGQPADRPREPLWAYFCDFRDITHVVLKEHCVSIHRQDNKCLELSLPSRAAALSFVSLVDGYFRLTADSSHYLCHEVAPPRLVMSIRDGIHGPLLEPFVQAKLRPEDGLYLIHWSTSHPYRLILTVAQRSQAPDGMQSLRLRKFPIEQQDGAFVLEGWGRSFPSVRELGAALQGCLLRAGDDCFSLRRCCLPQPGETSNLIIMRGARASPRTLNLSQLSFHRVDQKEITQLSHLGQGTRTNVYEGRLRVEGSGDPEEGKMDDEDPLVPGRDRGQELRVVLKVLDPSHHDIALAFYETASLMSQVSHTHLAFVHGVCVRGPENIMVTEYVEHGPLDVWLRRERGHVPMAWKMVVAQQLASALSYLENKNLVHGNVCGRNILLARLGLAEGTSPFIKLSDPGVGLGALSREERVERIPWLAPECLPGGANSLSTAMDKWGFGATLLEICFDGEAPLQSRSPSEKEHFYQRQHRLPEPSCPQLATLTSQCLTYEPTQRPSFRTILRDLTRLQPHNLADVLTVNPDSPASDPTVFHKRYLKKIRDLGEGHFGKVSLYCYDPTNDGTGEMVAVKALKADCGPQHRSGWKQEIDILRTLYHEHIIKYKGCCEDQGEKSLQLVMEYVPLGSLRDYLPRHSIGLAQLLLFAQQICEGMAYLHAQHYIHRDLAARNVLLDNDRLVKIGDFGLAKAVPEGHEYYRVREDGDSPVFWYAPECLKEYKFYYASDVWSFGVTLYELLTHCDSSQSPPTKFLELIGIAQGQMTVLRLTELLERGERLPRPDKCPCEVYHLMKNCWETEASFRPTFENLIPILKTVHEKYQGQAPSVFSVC

Sequence of JH2 domain of human Tyk2 (P29597 575-876): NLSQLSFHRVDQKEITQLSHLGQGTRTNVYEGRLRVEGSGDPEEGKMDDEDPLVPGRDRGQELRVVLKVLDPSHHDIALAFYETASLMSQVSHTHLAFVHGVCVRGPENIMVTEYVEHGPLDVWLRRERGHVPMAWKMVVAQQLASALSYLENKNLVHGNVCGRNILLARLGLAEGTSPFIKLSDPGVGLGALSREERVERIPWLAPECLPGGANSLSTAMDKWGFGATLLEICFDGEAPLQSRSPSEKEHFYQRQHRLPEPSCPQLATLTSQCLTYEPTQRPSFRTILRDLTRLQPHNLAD
Sequence of JAK2 (O60674 whole entry): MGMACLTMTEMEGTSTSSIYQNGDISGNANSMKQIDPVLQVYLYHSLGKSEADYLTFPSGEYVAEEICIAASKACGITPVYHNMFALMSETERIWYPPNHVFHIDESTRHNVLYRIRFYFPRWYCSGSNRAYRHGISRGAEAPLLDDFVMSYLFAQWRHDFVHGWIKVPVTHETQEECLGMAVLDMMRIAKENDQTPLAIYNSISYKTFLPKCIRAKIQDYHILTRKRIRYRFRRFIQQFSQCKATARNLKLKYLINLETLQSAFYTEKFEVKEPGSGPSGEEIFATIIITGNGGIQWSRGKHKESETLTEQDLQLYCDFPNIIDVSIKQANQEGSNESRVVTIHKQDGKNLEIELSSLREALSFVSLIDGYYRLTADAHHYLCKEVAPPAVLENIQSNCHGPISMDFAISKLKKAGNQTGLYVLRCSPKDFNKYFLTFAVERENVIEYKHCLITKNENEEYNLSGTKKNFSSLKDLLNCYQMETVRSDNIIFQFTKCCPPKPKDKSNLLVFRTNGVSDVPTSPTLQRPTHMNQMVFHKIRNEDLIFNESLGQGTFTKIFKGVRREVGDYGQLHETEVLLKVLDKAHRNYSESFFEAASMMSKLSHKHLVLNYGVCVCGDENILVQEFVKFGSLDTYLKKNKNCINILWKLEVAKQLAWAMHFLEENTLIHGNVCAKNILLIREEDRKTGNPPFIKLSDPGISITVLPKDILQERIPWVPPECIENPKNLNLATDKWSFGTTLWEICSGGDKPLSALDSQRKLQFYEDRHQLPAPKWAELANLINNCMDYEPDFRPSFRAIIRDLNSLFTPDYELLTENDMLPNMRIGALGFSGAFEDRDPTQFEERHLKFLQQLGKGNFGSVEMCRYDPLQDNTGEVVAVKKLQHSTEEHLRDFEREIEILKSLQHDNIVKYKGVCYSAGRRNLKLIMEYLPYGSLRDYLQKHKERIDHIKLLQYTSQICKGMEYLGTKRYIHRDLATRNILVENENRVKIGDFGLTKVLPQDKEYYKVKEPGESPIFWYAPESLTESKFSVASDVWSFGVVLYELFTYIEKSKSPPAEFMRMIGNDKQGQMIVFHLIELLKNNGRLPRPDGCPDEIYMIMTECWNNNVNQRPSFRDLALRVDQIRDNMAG
Sequence of JAK1 (P23458 whole entry): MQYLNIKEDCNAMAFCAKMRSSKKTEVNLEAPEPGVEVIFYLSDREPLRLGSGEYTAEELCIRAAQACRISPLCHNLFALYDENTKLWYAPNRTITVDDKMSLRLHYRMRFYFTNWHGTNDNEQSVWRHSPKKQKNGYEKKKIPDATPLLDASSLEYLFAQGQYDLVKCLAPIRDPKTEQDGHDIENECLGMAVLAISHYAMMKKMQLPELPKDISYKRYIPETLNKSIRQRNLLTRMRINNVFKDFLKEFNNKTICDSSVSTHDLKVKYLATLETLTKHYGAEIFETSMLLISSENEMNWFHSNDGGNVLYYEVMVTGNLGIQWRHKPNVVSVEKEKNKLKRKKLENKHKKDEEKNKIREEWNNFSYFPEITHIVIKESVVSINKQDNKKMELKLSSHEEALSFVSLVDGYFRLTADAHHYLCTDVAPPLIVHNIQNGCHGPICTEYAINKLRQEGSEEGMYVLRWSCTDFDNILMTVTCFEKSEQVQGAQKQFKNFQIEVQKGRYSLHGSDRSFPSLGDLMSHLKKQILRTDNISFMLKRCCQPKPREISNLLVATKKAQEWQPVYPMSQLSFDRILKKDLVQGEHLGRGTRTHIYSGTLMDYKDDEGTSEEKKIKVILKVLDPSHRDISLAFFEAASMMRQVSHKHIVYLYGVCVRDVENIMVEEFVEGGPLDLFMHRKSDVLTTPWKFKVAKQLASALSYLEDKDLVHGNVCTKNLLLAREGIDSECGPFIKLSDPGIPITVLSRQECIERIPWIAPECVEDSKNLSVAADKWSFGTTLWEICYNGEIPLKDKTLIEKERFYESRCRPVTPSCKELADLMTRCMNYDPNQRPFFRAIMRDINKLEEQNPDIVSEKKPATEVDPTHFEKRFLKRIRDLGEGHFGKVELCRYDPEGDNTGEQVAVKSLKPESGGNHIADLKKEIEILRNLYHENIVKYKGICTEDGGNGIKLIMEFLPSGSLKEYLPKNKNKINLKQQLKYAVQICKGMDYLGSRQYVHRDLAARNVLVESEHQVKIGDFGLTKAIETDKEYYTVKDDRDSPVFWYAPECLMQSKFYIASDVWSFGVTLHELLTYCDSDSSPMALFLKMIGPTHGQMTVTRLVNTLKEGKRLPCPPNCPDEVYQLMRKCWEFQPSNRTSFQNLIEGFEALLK

Compound | pIC50 (JAK1) | pIC50 (JAK2) | pIC50 (JH2 domain of human Tyk2) | pIC50 (Tyk2)
CC(=O)Nc1cc(Nc2cncc(C(C)(F)F)n2)c(-c2ccn(C)n2)cn1 [Example 212, N-(4-((6-(1,1-difluoroethyl)pyrazin-2-yl)amino)-5-(1-methyl-1H-pyrazol-3-yl)pyridin-2-yl)acetamide] | ≤ 6.00 | 6.00 to 7.00 | ≥ 8.00 | ≥ 8.00
CC(=O)Nc1cc(Nc2cc(C)nc(C(C)(F)F)n2)c(-c2ccn(C)n2)cn1 [Example 218, N-(4-((2-(1,1-difluoroethyl)-6-methylpyrimidin-4-yl)amino)-5-(1-methyl-1H-pyrazol-3-yl)pyridin-2-yl)acetamide] | ≤ 6.00 | ≤ 6.00 | ≥ 8.00 | ≥ 8.00
CC(=O)Nc1cc(Nc2cc(C)nc(C(C)(F)F)n2)c(-c2cc3n(n2)CCN(C)C3)cn1 [Example 226, N-(4-((2-(1,1-difluoroethyl)-6-methylpyrimidin-4-yl)amino)-5-(5-methyl-4,5,6,7-tetrahydropyrazolo[1,5-a]pyrazin-2-yl)pyridin-2-yl)acetamide] | 6.00 to 7.00 | ≤ 6.00 | ≥ 8.00 | ≥ 8.00
CC(=O)Nc1cc(Nc2cc(C)nc(C(C)(F)F)n2)c(-c2cnn(C)n2)cn1 [Example 227, N-(4-((2-(1,1-difluoroethyl)-6-methylpyrimidin-4-yl)amino)-5-(2-methyl-2H-1,2,3-triazol-4-yl)pyridin-2-yl)acetamide] | ≤ 6.00 | ≤ 6.00 | ≥ 8.00 | ≥ 8.00
CC(=O)Nc1cc(Nc2cc(C)nc(C(C)(F)F)n2)c(-c2nc3c(s2)CCN(C)C3)cn1 [Example 237, N-(4-((2-(1,1-difluoroethyl)-6-methylpyrimidin-4-yl)amino)-5-(5-methyl-4,5,6,7-tetrahydrothiazolo[4,5-c]pyridin-2-yl)pyridin-2-yl)acetamide] | ≤ 6.00 | ≤ 6.00 | ≥ 8.00 | ≥ 8.00
CC(=O)Nc1cc(Nc2cc(C)nc(C(C)(F)F)n2)c(-c2nc3c(s2)CN(C)CC3)cn1 [Example 238, N-(4-((2-(1,1-difluoroethyl)-6-methylpyrimidin-4-yl)amino)-5-(5-methyl-4,5,6,7-tetrahydrothiazolo[5,4-c]pyridin-2-yl)pyridin-2-yl)acetamide] | ≤ 6.00 | ≤ 6.00 | ≥ 8.00 | ≥ 8.00
CC(=O)Nc1cc(Nc2cc(C)nc(C(C)(F)F)n2)c(-c2cc(C(F)F)ncn2)cn1 [Example 246, N-(4-((2-(1,1-difluoroethyl)-6-methylpyrimidin-4-yl)amino)-5-(6-(difluoromethyl)pyrimidin-4-yl)pyridin-2-yl)acetamide] | ≤ 6.00 | ≤ 6.00 | ≥ 8.00 | 7.00 to 8.00
COCCn1ncc(-c2cnc(NC(C)=O)cc2Nc2cc(C)nc(C(C)(F)F)n2)n1 [Example 260, N-(4-((2-(1,1-difluoroethyl)-6-methylpyrimidin-4-yl)amino)-5-(2-(2-methoxyethyl)-2H-1,2,3-triazol-4-yl)pyridin-2-yl)acetamide] | ≤ 6.00 | ≤ 6.00 | ≥ 8.00 | ≥ 8.00
CCc1cc(Nc2cc(NC(C)=O)ncc2-c2ccc(CN3CCOCC3)cn2)nc(C(C)(F)F)n1 [Example 268, N-(4′-((2-(1,1-difluoroethyl)-6-ethylpyrimidin-4-yl)amino)-5-(morpholinomethyl)-[2,3′-bipyridin]-6′-yl)acetamide] | ≤ 6.00 | ≤ 6.00 | ≥ 8.00 | ≥ 8.00
CC(=O)Nc1cc(Nc2cc(C)nc(C(C)(F)F)n2)c(-c2ccncn2)cn1 [Example 270, N-(4-((2-(1,1-difluoroethyl)-6-methylpyrimidin-4-yl)amino)-5-(pyrimidin-4-yl)pyridin-2-yl)acetamide] | ≤ 6.00 | ≤ 6.00 | ≥ 8.00 | ≥ 8.00
CC(=O)Nc1cc(Nc2ccnc(C(C)(F)F)n2)c(-c2ccc(N(C)C)cn2)cn1 [Example 276, N-(4′-((2-(1,1-difluoroethyl)pyrimidin-4-yl)amino)-5-(dimethylamino)-[2,3′-bipyridin]-6′-yl)acetamide] | ≤ 6.00 | ≤ 6.00 | ≥ 8.00 | ≥ 8.00
CNC(=O)Nc1cc(Nc2cc(C)nc(C(C)(F)F)n2)c(-c2ccn(C)n2)cn1 [Example 289, 1-(4-((2-(1,1-difluoroethyl)-6-methylpyrimidin-4-yl)amino)-5-(1-methyl-1H-pyrazol-3-yl)pyridin-2-yl)-3-methylurea] | ≤ 6.00 | ≤ 6.00 | ≥ 8.00 | ≥ 8.00
COCCOc1cnc(NC(C)=O)cc1Nc1cc(OC2CC2)nc(C(C)(F)F)n1 [Example 298, N-(4-((6-cyclopropoxy-2-(1,1-difluoroethyl)pyrimidin-4-yl)amino)-5-(2-methoxyethoxy)pyridin-2-yl)acetamide] | ≤ 6.00 | ≤ 6.00 | ≥ 8.00 | ≥ 8.00
COCCOc1cnc(NC(C)=O)cc1Nc1cc(C(C)C)nc(C(C)(F)F)n1 [Example 300, N-(4-((2-(1,1-difluoroethyl)-6-isopropylpyrimidin-4-yl)amino)-5-(2-methoxyethoxy)pyridin-2-yl)acetamide] | ≤ 6.00 | ≤ 6.00 | ≥ 8.00 | ≥ 8.00
CCOc1cnc(NC(C)=O)cc1Nc1cc(-c2cnn(C)c2)nc(C(C)(F)F)n1 [Example 302, N-(4-((2-(1,1-difluoroethyl)-6-(1-methyl-1H-pyrazol-4-yl)pyrimidin-4-yl)amino)-5-ethoxypyridin-2-yl)acetamide] | ≤ 6.00 | ≤ 6.00 | ≥ 8.00 | 7.00 to 8.00
CCOc1cnc(NC(C)=O)cc1Nc1cc(-c2cnn(C3CC3)c2)nc(C(C)(F)F)n1 [Example 304, N-(4-((6-(1-cyclopropyl-1H-pyrazol-4-yl)-2-(1,1-difluoroethyl)pyrimidin-4-yl)amino)-5-ethoxypyridin-2-yl)acetamide] | ≤ 6.00 | ≤ 6.00 | ≥ 8.00 | ≥ 8.00
CCOc1cnc(NC(C)=O)cc1Nc1cc(-c2cnn(C(C)C)c2)nc(C(C)(F)F)n1 [Example 306, N-(4-((2-(1,1-difluoroethyl)-6-(1-isopropyl-1H-pyrazol-4-yl)pyrimidin-4-yl)amino)-5-ethoxypyridin-2-yl)acetamide] | ≤ 6.00 | ≤ 6.00 | ≥ 8.00 | ≥ 8.00
CCOc1cnc(NC(C)=O)cc1Nc1cc(-c2cnn(CC)c2)nc(C(C)(F)F)n1 [Example 311, N-(4-((2-(1,1-difluoroethyl)-6-(1-ethyl-1H-pyrazol-4-yl)pyrimidin-4-yl)amino)-5-ethoxypyridin-2-yl)acetamide] | ≤ 6.00 | ≤ 6.00 | ≥ 8.00 | 7.00 to 8.00
[2H]C([2H])([2H])n1cc(-c2cc(Nc3cc(NC(C)=O)ncc3OCC)nc(C(C)(F)F)n2)cn1 [Example 314, N-(4-((2-(1,1-difluoroethyl)-6-(1-(methyl-d3)-1H-pyrazol-4-yl)pyrimidin-4-yl)amino)-5-ethoxypyridin-2-yl)acetamide] | ≤ 6.00 | ≤ 6.00 | ≥ 8.00 | ≥ 8.00
[2H]C([2H])([2H])Oc1cnc(NC(C)=O)cc1Nc1cc(C(C)C)nc(C(C)(F)F)n1 [Example 315, N-(4-((2-(1,1-difluoroethyl)-6-isopropylpyrimidin-4-yl)amino)-5-(methoxy-d3)pyridin-2-yl)acetamide] | ≤ 6.00 | ≤ 6.00 | ≥ 8.00 | 7.00 to 8.00
CC(=O)Nc1cc(Nc2cc(C)nc(C(C)(F)F)n2)c(OCC[C@@H](C)F)cn1 [Example 336, (R)-N-(4-((2-(1,1-difluoroethyl)-6-methylpyrimidin-4-yl)amino)-5-(3-fluorobutoxy)pyridin-2-yl)acetamide] | ≤ 6.00 | ≤ 6.00 | ≥ 8.00 | 7.00 to 8.00
CO[C@H]1C[C@H](Oc2cnc(NC(C)=O)cc2Nc2cc(OC3CC3)nc(C(C)(F)F)n2)C1 [Example 350, N-(4-((6-cyclopropoxy-2-(1,1-difluoroethyl)pyrimidin-4-yl)amino)-5-((1r,3r)-3-methoxycyclobutoxy)pyridin-2-yl)acetamide] | ≤ 6.00 | ≤ 6.00 | ≥ 8.00 | 7.00 to 8.00
CO[C@H]1C[C@@H](Oc2cnc(NC(C)=O)cc2Nc2cc(OC3CC3)nc(C(C)(F)F)n2)C1 [Example 351, N-(4-((6-cyclopropoxy-2-(1,1-difluoroethyl)pyrimidin-4-yl)amino)-5-((1s,3s)-3-methoxycyclobutoxy)pyridin-2-yl)acetamide] | ≤ 6.00 | ≤ 6.00 | ≥ 8.00 | ≥ 8.00
CC(=O)Nc1cc(Nc2cc(OC3CC3)nc(C(C)(F)F)n2)c(O[C@H]2C[C@@H](F)C2)cn1 [Example 353, N-(4-((6-cyclopropoxy-2-(1,1-difluoroethyl)pyrimidin-4-yl)amino)-5-((1s,3s)-3-fluorocyclobutoxy)pyridin-2-yl)acetamide] | ≤ 6.00 | ≤ 6.00 | ≥ 8.00 | ≥ 8.00
CCOc1cnc(NC(=O)OC)cc1Nc1cc(C)nc(C(C)(F)F)n1 [Example 360, methyl (4-((2-(1,1-difluoroethyl)-6-methylpyrimidin-4-yl)amino)-5-ethoxypyridin-2-yl)carbamate] | ≤ 6.00 | ≤ 6.00 | ≥ 8.00 | 7.00 to 8.00
